The text below walks through data of ChEMBL document CHEMBL1133336, “Synthesis of a cyanopeptide-analogue with trypsin activating properties” (Bioorg Med Chem Lett, 2000).

The target of one assay is Plasminogen (Homo sapiens, UniProt P00747). Kind of assay: Compound was tested for inhibition of plasmin.
In another assay the target is Prothrombin (Homo sapiens, UniProt P00734). Nature of the assay: Compound was tested for inhibition of thrombin.
The target of assay [1] is T1, Serine protease 1 (Homo sapiens, UniProt P07477). Kind of assay: Compound was tested for inhibition of trypsin.
The target in assay [2] is T1, Serine protease 1. Nature of the assay: Percent increase in the activity of trypsin by the compound at concentration between 20 mM and 40 mM.

SMILES strings stand for the structures.

Sequence of Plasminogen (P00747 97-580 limits assumed): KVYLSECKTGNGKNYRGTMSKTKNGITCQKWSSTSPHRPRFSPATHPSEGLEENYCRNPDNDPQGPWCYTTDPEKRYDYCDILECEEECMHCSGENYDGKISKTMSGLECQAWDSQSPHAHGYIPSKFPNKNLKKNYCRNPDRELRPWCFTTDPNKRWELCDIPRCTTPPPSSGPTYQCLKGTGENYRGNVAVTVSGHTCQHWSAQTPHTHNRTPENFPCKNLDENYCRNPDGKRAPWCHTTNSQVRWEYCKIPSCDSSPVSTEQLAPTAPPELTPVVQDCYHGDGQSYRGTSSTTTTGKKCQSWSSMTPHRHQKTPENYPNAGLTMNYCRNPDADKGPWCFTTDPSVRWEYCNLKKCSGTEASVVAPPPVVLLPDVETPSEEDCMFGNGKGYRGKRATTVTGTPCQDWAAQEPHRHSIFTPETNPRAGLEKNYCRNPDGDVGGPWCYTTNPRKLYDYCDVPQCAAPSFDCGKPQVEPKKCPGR
Sequence of Plasminogen (P00747 581-810 limits assumed): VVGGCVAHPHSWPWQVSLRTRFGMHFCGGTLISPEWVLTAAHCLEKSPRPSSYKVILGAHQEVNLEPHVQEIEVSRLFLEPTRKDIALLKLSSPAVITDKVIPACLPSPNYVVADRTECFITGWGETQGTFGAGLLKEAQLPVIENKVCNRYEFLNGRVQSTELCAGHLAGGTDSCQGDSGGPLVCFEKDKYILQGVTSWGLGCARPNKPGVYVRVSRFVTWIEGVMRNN
T1 sequence (P07477 whole entry): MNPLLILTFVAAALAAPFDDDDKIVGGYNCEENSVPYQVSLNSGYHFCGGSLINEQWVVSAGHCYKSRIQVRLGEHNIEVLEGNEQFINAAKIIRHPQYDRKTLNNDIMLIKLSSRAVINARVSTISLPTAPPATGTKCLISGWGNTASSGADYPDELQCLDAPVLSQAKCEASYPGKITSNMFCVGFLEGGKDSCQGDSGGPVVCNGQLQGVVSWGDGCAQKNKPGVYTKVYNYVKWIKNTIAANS

For the compound `N=C(N)N1CCC[C@H](NC(=O)C2CC3CCC(O)CC3N2C(=O)[C@@H](Cc2ccc(O)cc2)NC(=O)[C@H](O)Cc2ccc(OS(=O)(=O)O)cc2)C1O` (stereo not given in full), the 50% inhibitory concentration (IC50) (usually the midpoint of a concentration-inhibition curve) is 0.409 µM against Plasminogen, 0.0546 µM against Prothrombin and 0.273 µM at Serine protease 1 [1].
Take `CC[C@H](C)[C@H](NC(=O)C(O)Cc1ccc(O)c(Cl)c1)C(=O)N1C2CC(OS(=O)(=O)O)CCC2C[C@H]1C(=O)NCCCCN=C(N)N` (stereo not given in full): the concentration for half-maximal inhibition (IC50) at Plasminogen is 8.71 µM; against Prothrombin, 10.2 µM; against Serine protease 1 [1], 0.871 µM.
As to `CCC(C)C(NC(=O)CCc1ccc(O)cc1)C(=O)N1CCN(CCOC(=O)C2CCCN2)CC1` (stereo not given), on Serine protease 1 [2], the Increase was 70%.
On to `CC[C@H](C)[C@H](NC(=O)C(O)Cc1ccc(O)cc1)C(=O)N1C2CC(OS(=O)(=O)O)CCC2C[C@H]1C(=O)NCCCCN=C(N)N` (stereo not given in full), for which the IC50 against Plasminogen was 10.7 µM; against Prothrombin, 15.3 µM; against Serine protease 1 [1], 0.916 µM.
